Experimental data reported in PubChem BioAssay AID192 (DTP/NCI, 2004).
Where “and” joins values, the source holds several entries; their conditions need not be identical. Equal entries are not always repeated. Inconclusive results and toxic doses are left out.

Tested on: BDF1 mice, B16 melanoma ip, median survival T/C
Experiment: NCI In Vivo Anticancer Drug Screen. Data for tumor model B16 Melanoma (intraperitoneal) in B6D2F1 (BDF1) mice
Details: endpoint: median survival time, higher = longer survival
Method in brief: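 The ratio T/C compares compound-treated mice with vehicle-treated controls, using survival or tumor size as the endpoint in a transplantable tumor model.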

[1] = dose: 100.0 mg/kg/injection, schedule: Q01DX009 (ip), vehicle: saline with Tween-80
[2] = dose: 2.5 mg/kg/injection, schedule: Q01DX009 (ip), vehicle: Klucel (hydroxypropylcellulose) (HPC)
[3] = dose: 5.0 mg/kg/injection, schedule: Q01DX009 (ip), vehicle: Klucel (hydroxypropylcellulose) (HPC)
[4] = dose: 12.5 mg/kg/injection, schedule: Q01DX009 (ip), vehicle: Klucel (hydroxypropylcellulose) (HPC)
[5] = dose: 25.0 mg/kg/injection, schedule: Q01DX009 (ip), vehicle: Klucel (hydroxypropylcellulose) (HPC)
[6] = dose: 50.0 mg/kg/injection, schedule: Q01DX009 (ip), vehicle: Klucel (hydroxypropylcellulose) (HPC)
[7] = dose: 100.0 mg/kg/injection, schedule: Q01DX009 (ip), vehicle: Klucel (hydroxypropylcellulose) (HPC)
[8] = dose: 50.0 mg/kg/injection, schedule: Q01DX009 (ip), vehicle: water
[9] = dose: 100.0 mg/kg/injection, schedule: Q01DX009 (ip), vehicle: water
[10] = dose: 7.5 mg/kg/injection, schedule: Q01DX009 (ip), vehicle: saline
[11] = dose: 12.5 mg/kg/injection, schedule: Q01DX009 (ip), vehicle: saline with Tween-80
[12] = dose: 25.0 mg/kg/injection, schedule: Q01DX009 (ip), vehicle: saline with Tween-80
[13] = dose: 50.0 mg/kg/injection, schedule: Q01DX009 (ip), vehicle: saline with Tween-80
[14] = dose: 200.0 mg/kg/injection, schedule: Q01DX009 (ip), vehicle: Klucel (hydroxypropylcellulose) (HPC)
[15] = dose: 400.0 mg/kg/injection, schedule: Q01DX009 (ip), vehicle: Klucel (hydroxypropylcellulose) (HPC)
[16] = dose: 25.0 mg/kg/injection, schedule: Q01DX009 (ip), vehicle: saline
[17] = dose: 50.0 mg/kg/injection, schedule: Q01DX009 (ip), vehicle: saline

## CC(=O)OCC(Br)C(Br)COC(C)=O (configuration not stated)
[1]
  T/C: 100 % of control
dose: 200.0 mg/kg/injection, schedule: Q01DX009 (ip), vehicle: saline with Tween-80
  T/C: 97 % of control
dose: 400.0 mg/kg/injection, schedule: Q01DX009 (ip), vehicle: saline with Tween-80
  T/C: 97 % of control

## CC(=O)[O][Hg][c]1c(C)c(C)c(C)c(C)c1C
[2]
  T/C: 99 % of control
[3]
  T/C: 98 % of control
dose: 10.0 mg/kg/injection, schedule: Q01DX009 (ip), vehicle: Klucel (hydroxypropylcellulose) (HPC)
  T/C: 90 % of control
[4]
  T/C: 90 % of control

## CN(C)N=Nc1ccc(S(N)(=O)=O)cc1
[5]
  T/C: 116 % of control
[6]
  T/C: 111 % of control
[7]
  T/C: 98 % of control

## NC(=O)OCCCc1ccccc1
[4]
  T/C: 100 % of control
[5]
  T/C: 94 % of control
[6]
  T/C: 100 % of control
[7]
  T/C: 107 % of control

## [Cl][Pt+2][Cl].[NH-]c1ccc(Cl)cc1[NH-]
dose: 2.5 mg/kg/injection, schedule: Q01DX009 (ip), vehicle: saline with Tween-80
  T/C: 108 % of control
dose: 20.0 mg/kg/injection, schedule: Q01DX009 (ip), vehicle: saline with Tween-80
  T/C: 153 % of control
dose: 40.0 mg/kg/injection, schedule: Q01DX009 (ip), vehicle: saline with Tween-80
  T/C: 123 % of control

## C=C1C(C)C2C(Cc3ccccc3)NC(=O)C23C(OC(C)=O)C=CC(C)(O)C(=O)C(C)C/C=C/C3C1O (configuration not stated)
dose: 0.63 mg/kg/injection, schedule: Q01DX009 (ip), vehicle: Klucel (hydroxypropylcellulose) (HPC)
  T/C: 103 % of control
dose: 1.25 mg/kg/injection, schedule: Q01DX009 (ip), vehicle: Klucel (hydroxypropylcellulose) (HPC)
  T/C: 94 % of control and 114 % of control
[2]
  T/C: 100 % of control and 114 % of control
[3]
  T/C: 108 % of control and 112 % of control

## O=C1/C(=C/c2ccc([N+](=O)[O-])cc2)CCc2ccccc21
dose: 12.5 mg/kg/injection, schedule: Q01DX009 (ip), vehicle: water
  T/C: 94 % of control
dose: 25.0 mg/kg/injection, schedule: Q01DX009 (ip), vehicle: water
  T/C: 97 % of control
[8]
  T/C: 92 % of control
[9]
  T/C: 92 % of control

## C=C(C)C(=O)O[C@H]1[C@H]2[C@H](OC(=O)[C@H]2C)[C@H](O)[C@@H](C)[C@@H]2C=CC(=O)[C@]21C
[10]
  T/C: 100 % of control
dose: 15.0 mg/kg/injection, schedule: Q01DX009 (ip), vehicle: saline with Tween-80
  T/C: 98 % of control
dose: 15.0 mg/kg/injection, schedule: Q01DX009 (ip), vehicle: saline
  T/C: 106 % of control
dose: 30.0 mg/kg/injection, schedule: Q01DX009 (ip), vehicle: saline with Tween-80
  T/C: 114 % of control
dose: 30.0 mg/kg/injection, schedule: Q01DX009 (ip), vehicle: saline
  T/C: 117 % of control
dose: 60.0 mg/kg/injection, schedule: Q01DX009 (ip), vehicle: saline with Tween-80
  T/C: 119 % of control

## Cc1ccc(NC(=S)NN)cc1C
[5]
  T/C: 100 % of control
[6]
  T/C: 96 % of control
[7]
  T/C: 96 % of control

## CCN(C(=O)Nc1ccccc1)c1ccccc1C
dose: 6.25 mg/kg/injection, schedule: Q01DX009 (ip), vehicle: saline with Tween-80
  T/C: 100 % of control
[11]
  T/C: 88 % of control
[12]
  T/C: 94 % of control

## Cc1ccc(N=Nc2c(O)ccc3n[nH]nc23)cc1
[7]
  T/C: 96 % of control

## O=S(=O)(Nc1cccc(C(F)(F)F)c1)c1ccccc1
[12]
  T/C: 108 % of control
[13]
  T/C: 101 % of control
[1]
  T/C: 97 % of control

## CN(C)NCCN1CCN(CCCN2c3ccccc3Sc3ccc(C(F)(F)F)cc32)CC1
dose: 3.75 mg/kg/injection, schedule: Q01DX009 (ip), vehicle: saline
  T/C: 93 % of control
[10]
  T/C: 112 % of control

## CCC(=O)O[C@H]1CC[C@H]2[C@@H]3CCC4=CC(=O)CC[C@]4(C)[C@H]3CC[C@]12C
[5]
  T/C: 96 % of control
dose: 40.0 mg/kg/injection, schedule: Q02DX009 (ip), vehicle: Klucel (hydroxypropylcellulose) (HPC)
  T/C: 100 % of control
[6]
  T/C: 90 % of control
dose: 80.0 mg/kg/injection, schedule: Q02DX009 (ip), vehicle: Klucel (hydroxypropylcellulose) (HPC)
  T/C: 105 % of control
[7]
  T/C: 95 % of control
[14]
  T/C: 91 % of control
dose: 320.0 mg/kg/injection, schedule: Q02DX009 (ip), vehicle: Klucel (hydroxypropylcellulose) (HPC)
  T/C: 105 % of control
[15]
  T/C: 94 % of control

## CCCC1OC(=O)C(C)O1 (configuration not stated)
[6]
  T/C: 92 % of control
[7]
  T/C: 89 % of control

## CC(C)NNC(=O)C(N)CCC(=O)O (configuration not stated)
[16]
  T/C: 97 % of control
[17]
  T/C: 104 % of control
dose: 100.0 mg/kg/injection, schedule: Q01DX009 (ip), vehicle: saline
  T/C: 95 % of control
dose: 200.0 mg/kg/injection, schedule: Q01DX009 (ip), vehicle: saline
  T/C: 100 % of control

## c1ccc2c(c1)OCCOCCOc1ccccc1OCCOCCO2
dose: 12.5 mg/kg/injection, schedule: Q04DX003 (ip), vehicle: Klucel (hydroxypropylcellulose) (HPC)
  T/C: 93 % of control
dose: 25.0 mg/kg/injection, schedule: Q04DX003 (ip), vehicle: Klucel (hydroxypropylcellulose) (HPC)
  T/C: 88 % of control
dose: 50.0 mg/kg/injection, schedule: Q04DX003 (ip), vehicle: Klucel (hydroxypropylcellulose) (HPC)
  T/C: 86 % of control

## C=CCOCCN1CCN(CCCN2c3ccccc3Sc3ccc(C(F)(F)F)cc32)CC1
dose: 0.31 mg/kg/injection, schedule: Q01DX009 (ip), vehicle: saline
  T/C: 102 % of control
dose: 0.62 mg/kg/injection, schedule: Q01DX009 (ip), vehicle: saline
  T/C: 95 % of control
dose: 0.78 mg/kg/injection, schedule: Q01DX009 (ip), vehicle: saline
  T/C: 102 % of control
dose: 1.56 mg/kg/injection, schedule: Q01DX009 (ip), vehicle: saline
  T/C: 114 % of control

## Nc1ccc(F)cc1[N+](=O)[O-]
dose: 75.0 mg/kg/injection, schedule: Q01DX009 (ip), vehicle: Klucel (hydroxypropylcellulose) (HPC)
  T/C: 122 % of control
dose: 150.0 mg/kg/injection, schedule: Q01DX009 (ip), vehicle: Klucel (hydroxypropylcellulose) (HPC)
  T/C: 105 % of control
dose: 300.0 mg/kg/injection, schedule: Q01DX009 (ip), vehicle: Klucel (hydroxypropylcellulose) (HPC)
  T/C: 102 % of control

## CC(Br)C(=O)NC(Cc1ccccc1)C(=O)O (configuration not stated)
[13]
  T/C: 94 % of control
[1]
  T/C: 91 % of control

## CN1CCN(C(c2ccccc2)c2ccc(Cl)cc2)CC1 (configuration not stated)
dose: 3.12 mg/kg/injection, schedule: Q01DX009 (ip), vehicle: saline
  T/C: 105 % of control
dose: 6.25 mg/kg/injection, schedule: Q01DX009 (ip), vehicle: saline
  T/C: 105 % of control
dose: 12.5 mg/kg/injection, schedule: Q01DX009 (ip), vehicle: saline
  T/C: 102 % of control
[16]
  T/C: 102 % of control
[17]
  T/C: 100 % of control

## CC(NC(=O)OC(C)(C)C)C(=O)ON1C(=O)CCC1=O (configuration not stated)
[13]
  T/C: 102 % of control
[1]
  T/C: 92 % of control

## CC(C)N(C(=O)c1ccc(C(=O)N(c2ccccc2)C(C)C)cc1)c1ccccc1
[11]
  T/C: 103 % of control
[12]
  T/C: 99 % of control
[13]
  T/C: 99 % of control

## C=CCN1C(=O)C=CC1=O
dose: 0.75 mg/kg/injection, schedule: Q01DX009 (ip), vehicle: saline
  T/C: 102 % of control
dose: 1.5 mg/kg/injection, schedule: Q01DX009 (ip), vehicle: saline
  T/C: 93 % of control

## OCCN(CCO)CN(CO)c1nc(N(CO)CN(CCO)CCO)nc(N(CO)CN(CCO)CCO)n1
dose: 100.0 mg/kg/injection, schedule: Q04DX003 (ip), vehicle: saline
  T/C: 120 % of control
dose: 200.0 mg/kg/injection, schedule: Q04DX003 (ip), vehicle: saline
  T/C: 123 % of control
dose: 400.0 mg/kg/injection, schedule: Q04DX003 (ip), vehicle: saline
  T/C: 112 % of control

## Cc1nnc(NC(=O)CCl)s1
[12]
  T/C: 97 % of control
[13]
  T/C: 105 % of control
[1]
  T/C: 97 % of control

## Cc1ccc(S(=O)(=O)NC(=O)C2C(=O)CC3(CCCCC3)CC2=O)cc1
[5]
  T/C: 97 % of control
[6]
  T/C: 100 % of control and 111 % of control
[7]
  T/C: 96 % of control and 113 % of control
[14]
  T/C: 94 % of control

## Cn1cnc2c1c(=O)[nH]c(=O)n2C
[7]
  T/C: 109 % of control
[14]
  T/C: 111 % of control
[15]
  T/C: 109 % of control

## CCCCCCCCCCCCCCCCCC(=O)NNCCO
[13]
  T/C: 86 % of control

## CN(C)CCCNc1cc(O)c2c(c1O)C(=O)c1ccccc1C2=O
[8]
  T/C: 116 % of control
[9]
  T/C: 107 % of control
